# Reference: ChEMBL document CHEMBL1201862, “PubChem BioAssay data set” (2004)
# Calls of active or inactive are those of the source.
# Legend:
# [1] = biological target: T1, Carboxy-terminal domain RNA polymerase II polypeptide A small phosphatase 1 (Homo sapiens, UniProt Q9GZU7); assay: CTDSP1 inhibitors, concentration-response, biochemical, absorbance readout, ultra-high-throughput screen actives (AID 540297); type: functional
# T1 sequence (Q9GZU7 whole entry): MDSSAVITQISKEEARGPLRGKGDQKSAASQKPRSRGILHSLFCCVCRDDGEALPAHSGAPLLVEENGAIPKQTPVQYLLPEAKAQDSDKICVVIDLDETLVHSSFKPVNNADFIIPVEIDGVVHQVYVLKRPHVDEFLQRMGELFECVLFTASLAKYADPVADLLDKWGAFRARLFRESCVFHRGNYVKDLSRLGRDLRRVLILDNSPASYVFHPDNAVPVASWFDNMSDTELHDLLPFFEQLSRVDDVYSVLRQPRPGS
# Protein RecA = biological target: T2, Protein RecA (Mycobacterium tuberculosis, UniProt P9WHJ3); assay: Fluorescence Cell-Free Homogeneous Dose Retest to Identify Inhibitors of RecA-Intein Splicing Activity. [Related pubchem assays (depositor defined):AID2097, AID2223, AID489010, AID492950]; type: functional
# T2 sequence (P9WHJ3 whole entry): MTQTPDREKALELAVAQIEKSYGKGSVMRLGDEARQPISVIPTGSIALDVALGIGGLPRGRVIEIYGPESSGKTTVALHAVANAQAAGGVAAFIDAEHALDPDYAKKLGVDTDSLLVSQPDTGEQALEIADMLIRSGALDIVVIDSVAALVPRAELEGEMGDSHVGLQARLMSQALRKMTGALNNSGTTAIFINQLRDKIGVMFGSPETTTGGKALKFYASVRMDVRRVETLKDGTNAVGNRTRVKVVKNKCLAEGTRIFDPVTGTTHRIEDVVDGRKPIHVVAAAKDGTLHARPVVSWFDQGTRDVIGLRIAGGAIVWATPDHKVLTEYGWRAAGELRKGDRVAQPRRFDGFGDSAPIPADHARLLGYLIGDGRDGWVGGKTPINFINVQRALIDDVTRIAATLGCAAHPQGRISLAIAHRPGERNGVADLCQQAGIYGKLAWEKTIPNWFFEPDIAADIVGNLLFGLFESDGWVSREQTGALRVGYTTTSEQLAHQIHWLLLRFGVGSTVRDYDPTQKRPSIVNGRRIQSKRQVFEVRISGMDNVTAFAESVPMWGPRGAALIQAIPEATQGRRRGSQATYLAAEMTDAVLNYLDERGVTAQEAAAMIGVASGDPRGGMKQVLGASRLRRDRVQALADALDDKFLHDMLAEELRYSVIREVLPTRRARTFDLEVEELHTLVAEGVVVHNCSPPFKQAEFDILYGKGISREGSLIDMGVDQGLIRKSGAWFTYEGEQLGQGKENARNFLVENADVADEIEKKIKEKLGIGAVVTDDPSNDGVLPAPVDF
# [2] = fluconazole-exposed Candida albicans growth modulators – fluorescence, retest, confirmation (AID 2467); type: functional, cell-based
# [3] = Trypanosoma cruzi growth suppression in host cells – NIH3T3 host cells, beta-gal luminescence, confirmation (AID 2044); type: functional, cell-based;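 note: intracellular parasites grown in NIH/3T3 mouse fibroblasts as host cells; luminescent beta-galactosidase reporter signal from transgenic T. cruzi replicating inside host cells; inhibitors lower the luminescence signal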
# [4] = biological target: T3, Replicative DNA helicase DnaB (Mycobacterium tuberculosis, UniProt P9WMR3); assay: DnaB intein splicing inhibitors, dose response, biochemical, cell-free fluorescence (AID 449749); type: functional
# T3 sequence (P9WMR3 whole entry): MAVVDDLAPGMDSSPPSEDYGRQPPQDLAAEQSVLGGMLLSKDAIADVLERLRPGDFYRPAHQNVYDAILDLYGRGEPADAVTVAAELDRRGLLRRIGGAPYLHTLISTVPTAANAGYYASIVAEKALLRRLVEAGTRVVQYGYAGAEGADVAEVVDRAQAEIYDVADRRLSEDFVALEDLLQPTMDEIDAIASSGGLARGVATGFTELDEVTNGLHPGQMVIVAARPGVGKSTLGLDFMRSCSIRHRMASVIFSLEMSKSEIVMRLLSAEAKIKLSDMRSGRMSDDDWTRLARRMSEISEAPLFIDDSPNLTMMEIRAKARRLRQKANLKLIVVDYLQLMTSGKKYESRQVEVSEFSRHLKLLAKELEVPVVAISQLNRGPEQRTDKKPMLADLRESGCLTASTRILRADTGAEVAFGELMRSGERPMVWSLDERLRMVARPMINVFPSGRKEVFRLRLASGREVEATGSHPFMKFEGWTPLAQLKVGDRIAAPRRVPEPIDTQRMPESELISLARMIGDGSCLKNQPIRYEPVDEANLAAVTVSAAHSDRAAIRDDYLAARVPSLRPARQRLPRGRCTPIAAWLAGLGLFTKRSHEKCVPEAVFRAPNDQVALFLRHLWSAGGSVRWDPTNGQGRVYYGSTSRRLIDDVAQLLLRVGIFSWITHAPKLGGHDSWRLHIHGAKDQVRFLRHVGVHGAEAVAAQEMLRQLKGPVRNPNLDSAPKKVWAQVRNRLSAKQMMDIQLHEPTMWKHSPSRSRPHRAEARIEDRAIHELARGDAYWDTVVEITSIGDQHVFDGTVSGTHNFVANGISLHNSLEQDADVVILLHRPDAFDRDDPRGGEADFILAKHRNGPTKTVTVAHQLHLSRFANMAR
# [5] = NIH3T3 cell viability loss – ATP luminescence, mouse fibroblasts, counter-screen, dose response (AID 2010); type: functional, cell-based;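 note: cells exposed to compound for about 90 hours before reading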
# [6] = biological target: T4, Microphthalmia-associated transcription factor (Homo sapiens, UniProt O75030); assay: reducers of TRPM1 reporter luminescence, concentration series – cell-based, SK-MEL-5, cherry-picked, set 3, MITF inhibitor project, dose response (AID 493073); type: functional;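 note: SK-MEL-5 melanoma cells with luciferase driven by the MITF target TRPM1 promoter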
# T4 sequence (O75030 whole entry): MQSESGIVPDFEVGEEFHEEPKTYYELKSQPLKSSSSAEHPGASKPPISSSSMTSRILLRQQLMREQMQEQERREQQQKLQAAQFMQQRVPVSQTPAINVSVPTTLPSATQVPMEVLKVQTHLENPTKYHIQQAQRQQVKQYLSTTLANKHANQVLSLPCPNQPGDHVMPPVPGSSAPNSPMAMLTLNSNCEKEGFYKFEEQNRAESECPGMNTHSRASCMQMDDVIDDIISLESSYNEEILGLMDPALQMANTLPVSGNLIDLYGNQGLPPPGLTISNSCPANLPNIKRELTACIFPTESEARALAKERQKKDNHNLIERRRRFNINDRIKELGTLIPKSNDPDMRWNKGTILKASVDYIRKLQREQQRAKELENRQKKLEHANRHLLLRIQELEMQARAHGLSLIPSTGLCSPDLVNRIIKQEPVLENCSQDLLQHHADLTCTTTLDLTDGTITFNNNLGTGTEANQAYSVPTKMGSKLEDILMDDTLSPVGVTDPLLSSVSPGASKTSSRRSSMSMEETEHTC
# [7] = NIH-3T3 fibroblast cytotoxicity, dose response, cytotoxicity control, cell-based, fluorescence, Alamar Blue, secondary assay (AID 2327); type: functional;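 note: NIH-3T3 mouse fibroblasts cultured with fluconazole at 8 µg/mL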
# [8] = biological target: T5, Heat shock factor protein 1 (Mus musculus, UniProt P38532); assay: decrease of HSF1-responsive luciferase luminescence – cell-based, NIH3T3, dose retest, confirmation (AID 2382); type: functional;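 note: NIH3T3 fibroblasts with HSF1-driven luciferase reporter stressed by proteasome inhibitor MG132; luminescence from HSF1-driven luciferase expression after 8 hours of MG132 stress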
# T5 sequence (P38532 whole entry): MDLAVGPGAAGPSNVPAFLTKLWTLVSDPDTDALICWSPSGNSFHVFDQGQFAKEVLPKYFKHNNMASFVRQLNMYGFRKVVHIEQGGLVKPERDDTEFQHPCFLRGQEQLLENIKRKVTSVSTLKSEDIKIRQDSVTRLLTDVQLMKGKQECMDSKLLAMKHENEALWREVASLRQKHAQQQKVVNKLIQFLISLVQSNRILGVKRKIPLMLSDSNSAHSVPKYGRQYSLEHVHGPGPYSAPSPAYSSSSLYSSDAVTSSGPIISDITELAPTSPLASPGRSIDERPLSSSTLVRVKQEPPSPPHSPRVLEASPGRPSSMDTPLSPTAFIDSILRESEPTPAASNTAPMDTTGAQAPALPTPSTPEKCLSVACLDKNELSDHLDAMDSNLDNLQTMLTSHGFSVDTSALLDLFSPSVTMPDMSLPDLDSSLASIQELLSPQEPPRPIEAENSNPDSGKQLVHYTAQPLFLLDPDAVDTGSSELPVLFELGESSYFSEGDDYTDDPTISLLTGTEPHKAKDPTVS
# [9] = DRD fibroblast viability loss – cell-based, non-viral oncogenic, luminescence, dose response (AID 1934); type: functional; conditions: Homo sapiens
# BJ [10] = assay: BJ-TERT-LT-ST fibroblast viability loss – cell-based, RAS-independent, luminescence, dose response (AID 1935); type: functional; conditions: Homo sapiens;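 note: BJ fibroblasts immortalized with TERT plus LT and ST oncogenes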
# [11] = HEK-293T viability loss after treatment – luminescence, T-cell screen hits, cytotoxicity control for TCR NF-kB inhibitor project, dose response (AID 489026); type: functional, cell-based;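 note: cells exposed to compound about 14 hours before the viability readout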
# BJ [12] = assay: cells; type: functional, cell-based; conditions: Homo sapiens
# BJ [13] = assay: BJ-TERT fibroblast viability loss – cell-based, RAS-independent, luminescence, dose response (AID 1933); type: functional; conditions: Homo sapiens
# Cytochrome P450 2C9 = Cytochrome P450 2C9 (Homo sapiens, UniProt P11712)
# Cytochrome P450 2C9, sequence (P11712 whole entry): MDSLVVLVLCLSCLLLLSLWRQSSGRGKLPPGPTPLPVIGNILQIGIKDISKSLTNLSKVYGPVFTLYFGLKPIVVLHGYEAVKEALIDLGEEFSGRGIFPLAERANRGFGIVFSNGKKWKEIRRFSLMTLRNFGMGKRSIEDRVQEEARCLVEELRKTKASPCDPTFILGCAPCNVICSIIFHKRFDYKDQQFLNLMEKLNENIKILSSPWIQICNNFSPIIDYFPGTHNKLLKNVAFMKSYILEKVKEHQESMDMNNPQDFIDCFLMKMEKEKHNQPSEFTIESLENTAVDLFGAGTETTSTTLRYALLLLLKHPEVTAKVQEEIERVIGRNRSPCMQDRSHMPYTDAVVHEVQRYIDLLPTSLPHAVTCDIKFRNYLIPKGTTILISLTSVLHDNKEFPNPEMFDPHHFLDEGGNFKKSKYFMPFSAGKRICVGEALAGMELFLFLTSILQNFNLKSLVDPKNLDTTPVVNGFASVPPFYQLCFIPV
# INS1 = assay: INS-1E survival protection against cytokine death – cell-based, luminescence, retest, dose response (AID 449756); type: functional; conditions: Rattus norvegicus;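 note: cell death triggered by IL-1 beta plus TNF-alpha plus IFN-gamma mixture; protective hits raise ATP signal compared with cytokine alone wells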
# Genome polyprotein = Genome polyprotein (dengue virus type 2, UniProt P29990); assay: flavivirus cap methylation enzyme inhibition – biochemical, confirmation dose response, primary screen (AID 588689); type: functional
# Genome polyprotein, sequence (P29990 2492-3391 limits assumed): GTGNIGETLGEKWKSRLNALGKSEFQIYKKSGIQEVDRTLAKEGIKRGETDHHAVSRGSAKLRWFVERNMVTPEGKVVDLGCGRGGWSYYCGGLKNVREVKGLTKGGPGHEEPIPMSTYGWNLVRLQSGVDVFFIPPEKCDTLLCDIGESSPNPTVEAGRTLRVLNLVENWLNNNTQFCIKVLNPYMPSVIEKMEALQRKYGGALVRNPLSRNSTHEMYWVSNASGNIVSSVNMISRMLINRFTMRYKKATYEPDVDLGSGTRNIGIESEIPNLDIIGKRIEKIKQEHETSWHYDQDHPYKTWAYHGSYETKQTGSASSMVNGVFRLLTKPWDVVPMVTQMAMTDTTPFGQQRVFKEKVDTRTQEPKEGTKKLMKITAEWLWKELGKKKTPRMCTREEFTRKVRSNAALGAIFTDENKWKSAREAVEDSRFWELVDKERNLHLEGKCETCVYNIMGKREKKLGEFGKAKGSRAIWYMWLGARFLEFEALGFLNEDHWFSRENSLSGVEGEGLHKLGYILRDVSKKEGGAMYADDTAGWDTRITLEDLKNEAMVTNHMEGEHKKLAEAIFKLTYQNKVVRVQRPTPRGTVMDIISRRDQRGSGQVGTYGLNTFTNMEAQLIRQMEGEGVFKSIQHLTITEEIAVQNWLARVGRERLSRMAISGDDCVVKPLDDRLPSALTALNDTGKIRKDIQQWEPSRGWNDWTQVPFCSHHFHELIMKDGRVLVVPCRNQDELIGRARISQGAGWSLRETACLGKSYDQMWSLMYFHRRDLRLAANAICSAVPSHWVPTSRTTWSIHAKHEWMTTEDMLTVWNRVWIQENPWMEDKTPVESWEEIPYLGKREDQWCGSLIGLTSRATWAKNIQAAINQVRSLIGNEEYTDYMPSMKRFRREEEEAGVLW
# [14] = biological target: T6, Calpain-2 catalytic subunit (Sus scrofa, UniProt P43367); assay: m-calpain protease blockers, concentration series – biochemical, fluorogenic peptide substrate, dose response (AID 1420); type: functional
# T6 sequence (P43367 whole entry): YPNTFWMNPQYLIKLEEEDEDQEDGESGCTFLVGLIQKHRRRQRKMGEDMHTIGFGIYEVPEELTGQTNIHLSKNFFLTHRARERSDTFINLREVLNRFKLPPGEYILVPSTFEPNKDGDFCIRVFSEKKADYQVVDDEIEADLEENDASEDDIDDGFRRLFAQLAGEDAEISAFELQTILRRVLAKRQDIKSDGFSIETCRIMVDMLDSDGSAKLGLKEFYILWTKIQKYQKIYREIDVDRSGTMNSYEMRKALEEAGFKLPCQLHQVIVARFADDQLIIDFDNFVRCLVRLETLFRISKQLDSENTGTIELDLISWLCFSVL
# [15] = Luminescence Cell-Based Dose Retest to Confirm Inhibitors of Cancer Stem Cells. [Related pubchem assays (depositor defined):AID2717, AID2721]; type: functional; conditions: Homo sapiens
# [16] = biological target: Heat shock protein HSP 90-alpha (Homo sapiens, UniProt P07900); type: functional, organism-based
# Large T antigen = Large T antigen (Simian virus 40, UniProt P03070); type: functional, Betapolyomavirus macacae;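 note: Confirmatory-stage PubChem screen for compounds that inhibit SV40 T antigen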
# Large T antigen, sequence (P03070 whole entry): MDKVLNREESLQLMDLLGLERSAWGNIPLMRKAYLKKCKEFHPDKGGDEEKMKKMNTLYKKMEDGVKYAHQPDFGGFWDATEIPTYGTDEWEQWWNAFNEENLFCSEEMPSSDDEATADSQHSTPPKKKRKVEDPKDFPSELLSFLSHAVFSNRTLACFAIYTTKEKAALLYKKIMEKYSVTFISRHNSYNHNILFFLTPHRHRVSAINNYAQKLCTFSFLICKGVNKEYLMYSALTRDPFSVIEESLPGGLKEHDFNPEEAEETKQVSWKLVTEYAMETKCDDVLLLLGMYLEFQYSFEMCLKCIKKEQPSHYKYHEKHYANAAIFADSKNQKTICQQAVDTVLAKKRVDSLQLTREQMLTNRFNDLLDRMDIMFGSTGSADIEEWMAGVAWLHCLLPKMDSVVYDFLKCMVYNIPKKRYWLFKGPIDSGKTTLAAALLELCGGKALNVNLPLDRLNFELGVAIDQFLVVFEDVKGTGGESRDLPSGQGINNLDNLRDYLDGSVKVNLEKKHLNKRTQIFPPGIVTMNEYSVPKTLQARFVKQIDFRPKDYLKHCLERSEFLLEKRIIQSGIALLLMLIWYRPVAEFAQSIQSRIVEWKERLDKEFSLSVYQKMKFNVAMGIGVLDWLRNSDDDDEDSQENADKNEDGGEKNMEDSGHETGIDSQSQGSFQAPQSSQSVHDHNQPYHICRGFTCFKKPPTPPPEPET
# P388/ADR = assay: cells; type: functional; conditions: Mus musculus
# P388 = assay: cells; type: functional; conditions: Mus musculus
compound,measurement,setting,value
O=C(Nc1ccc(F)cc1)c1cccc(N2C(=O)c3ccccc3C2=O)c1,IC50,[1],11.1 µM (active)
O=C(CCl)Nc1ccc(-c2ccccc2)cc1,EC50,Protein RecA,0.587 µM (active)
same,EC50,[2],1.77 µM (active)
same,EC50,[3],1.69 µM (active)
same,AC50,[4],20.5 µM (active)
same,EC50,[5],< 6 µM (inconclusive)
same,AC50,[6],7.3 µM (active)
same,EC50,[7],4.59 µM (inconclusive)
same,EC50,[8],9.64 µM (active)
Cc1ccc(C(=O)c2cc([N+](=O)[O-])ccc2N2CCOCC2)cc1C,EC50,[9],1.6 µM (inconclusive)
same,EC50,BJ [10],1.75 µM (active)
same,IC50,[11],> 80 µM (inactive)
same,EC50,BJ [12],73.8 µM (inconclusive)
same,EC50,BJ [13],3.06 µM (active)
CSc1ccccc1N1CCN(C(=O)Nc2ccc3c(c2)NC(=O)CO3)CC1,AC50,Cytochrome P450 2C9,inconclusive
C=C1c2cccc(OC)c2O[C@H](C(=O)OCC)[C@@H]1CC(CC)CCCC (some centres not stated),IC50,[1],52.1 µM (active)
C[N+]1=C(/C=C/Nc2ccccc2Cl)C(C)(C)c2ccccc21,IC50,[1],5.96 µM (active)
same,AC50,INS1,7.84 µM (active)
COc1cc(/C=C2\SC(=S)N(CCCCC(=O)O)C2=O)ccc1OS(=O)(=O)c1ccc(C)cc1,IC50,[1],4.16 µM (active)
same,IC50,Genome polyprotein,39.8 µM (active)
O=C1C2CCCCC2C(=O)N1c1ccc(NC2CCN(Cc3ccccc3)CC2)c([N+](=O)[O-])c1 (configuration not stated),IC50,[14],> 50 µM (not active)
COc1ccc2cc3cc(C(=O)NCc4ccco4)oc3nc2c1,IC50,[1],10.1 µM (active)
CC(C)Oc1ccc(C(=O)/C=C2/C(=O)Nc3ccccc32)cc1,AC50,[15],4.39 µM (active)
same,AC50,[16],1.94 µM (active)
CCCc1ccc(C(=O)NNC(=O)c2ccc(Br)cc2)cc1,IC50,[1],5.88 µM (active)
CCCCOc1ccc(CNC(=O)NS(=O)(=O)c2ccc(OCC(C)C)cc2)cc1,IC50,[1],14.8 µM (active)
CCN(C(=O)C1CCCN(c2nc(-c3ccc(OC)cc3)no2)C1)c1ccc(OC)cc1 (configuration not stated),AC50,[16],7.81 µM (active)
COc1cccc(NC(S)=Nc2ccc(O)cc2)c1,IC50,Large T antigen,5.64 µM (active)
O=C(/C=C/c1ccccc1)CCN1CCCCC1,AC50,[16],3.9 µM (active)
O=S(=O)(c1c(F)cccc1F)N(CCc1ccc(F)cc1)C[C@@H](O)COCc1ccccc1,AC50,[16],0.392 µM (active)
CCC(C(C)N1CC(=O)NC(=O)C1)N1CC(=O)NC(=O)C1 (configuration not stated),GI50,P388/ADR,6.12 µM (inactive)
same,GI50,P388,< 0.0316 µM (active)
O=C(O)C1Cc2c([nH]c3ccccc23)C=N1 (configuration not stated),GI50,P388/ADR,> 100 µM (inactive)
same,GI50,P388,> 100 µM (inactive)
CCOc1cc(/C=N/Nc2ccc(C(=O)O)cc2)ccc1OC(=O)c1ccccc1C,IC50,[14],5.07 µM (active)
C(=C\c1ccccc1)/C=N/N1CCN(Cc2ccccc2)CC1,IC50,[14],> 50 µM (not active)
COc1cc(/C=N/NC(=O)c2ccc(Cn3cc([N+](=O)[O-])cn3)o2)cc(Br)c1O,IC50,Large T antigen,24 µM (active)
